One assay deals with Stromelysin-1 (Homo sapiens, UniProt P08254). Briefly: Inhibition of MMP3.
The next assay has as its target Collagenase 3 (Homo sapiens, UniProt P45452). Briefly: Inhibition of MMP13.
Assay [1] has as its target Macrophage metalloelastase (Homo sapiens, UniProt P39900). Briefly: Inhibition of MMP12.
The target in another assay is T1, Matrilysin (Homo sapiens, UniProt P09237).
T1 sequence (P09237 whole entry): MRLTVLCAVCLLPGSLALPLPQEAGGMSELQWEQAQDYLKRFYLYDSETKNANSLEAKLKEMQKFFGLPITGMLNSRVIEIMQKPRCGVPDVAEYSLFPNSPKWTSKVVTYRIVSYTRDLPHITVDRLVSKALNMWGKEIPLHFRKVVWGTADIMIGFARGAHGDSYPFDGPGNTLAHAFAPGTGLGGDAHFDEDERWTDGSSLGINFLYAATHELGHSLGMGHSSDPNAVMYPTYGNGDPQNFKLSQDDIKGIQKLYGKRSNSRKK
Briefly: Inhibition of MMP7.

For assay [2], the target named is Disintegrin and metalloproteinase domain-containing protein 17 (Sus scrofa, UniProt O77636). Briefly: Inhibition of porcine TACE.
Disintegrin and metalloproteinase domain-containing protein 17, sequence (O77636 whole entry, the tested form may be a part): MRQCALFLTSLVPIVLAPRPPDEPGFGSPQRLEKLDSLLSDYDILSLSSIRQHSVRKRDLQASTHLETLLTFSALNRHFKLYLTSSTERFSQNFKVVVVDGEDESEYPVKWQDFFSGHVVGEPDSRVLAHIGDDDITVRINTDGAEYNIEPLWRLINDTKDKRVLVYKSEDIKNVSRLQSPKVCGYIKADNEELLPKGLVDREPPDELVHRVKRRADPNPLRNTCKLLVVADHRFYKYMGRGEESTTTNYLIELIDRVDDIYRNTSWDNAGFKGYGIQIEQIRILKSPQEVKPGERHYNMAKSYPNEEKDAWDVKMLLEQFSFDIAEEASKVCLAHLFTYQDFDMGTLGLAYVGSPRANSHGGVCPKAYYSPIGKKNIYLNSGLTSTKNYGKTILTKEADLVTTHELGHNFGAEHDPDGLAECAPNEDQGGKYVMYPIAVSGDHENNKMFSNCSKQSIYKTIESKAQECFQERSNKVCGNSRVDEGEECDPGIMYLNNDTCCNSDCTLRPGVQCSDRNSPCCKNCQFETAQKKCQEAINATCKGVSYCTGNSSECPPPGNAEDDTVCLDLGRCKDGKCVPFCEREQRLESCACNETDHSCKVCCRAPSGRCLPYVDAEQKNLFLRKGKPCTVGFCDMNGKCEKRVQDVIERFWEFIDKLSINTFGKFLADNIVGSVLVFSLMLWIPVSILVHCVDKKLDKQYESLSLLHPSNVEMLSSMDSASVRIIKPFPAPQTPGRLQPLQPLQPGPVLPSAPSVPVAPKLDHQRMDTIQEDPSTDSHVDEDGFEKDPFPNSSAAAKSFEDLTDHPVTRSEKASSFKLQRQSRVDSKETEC
For assay [3], the target named is 72 kDa type IV collagenase (Homo sapiens, UniProt P08253). Briefly: Inhibition of MMP2.
72 kDa type IV collagenase, sequence (P08253 whole entry): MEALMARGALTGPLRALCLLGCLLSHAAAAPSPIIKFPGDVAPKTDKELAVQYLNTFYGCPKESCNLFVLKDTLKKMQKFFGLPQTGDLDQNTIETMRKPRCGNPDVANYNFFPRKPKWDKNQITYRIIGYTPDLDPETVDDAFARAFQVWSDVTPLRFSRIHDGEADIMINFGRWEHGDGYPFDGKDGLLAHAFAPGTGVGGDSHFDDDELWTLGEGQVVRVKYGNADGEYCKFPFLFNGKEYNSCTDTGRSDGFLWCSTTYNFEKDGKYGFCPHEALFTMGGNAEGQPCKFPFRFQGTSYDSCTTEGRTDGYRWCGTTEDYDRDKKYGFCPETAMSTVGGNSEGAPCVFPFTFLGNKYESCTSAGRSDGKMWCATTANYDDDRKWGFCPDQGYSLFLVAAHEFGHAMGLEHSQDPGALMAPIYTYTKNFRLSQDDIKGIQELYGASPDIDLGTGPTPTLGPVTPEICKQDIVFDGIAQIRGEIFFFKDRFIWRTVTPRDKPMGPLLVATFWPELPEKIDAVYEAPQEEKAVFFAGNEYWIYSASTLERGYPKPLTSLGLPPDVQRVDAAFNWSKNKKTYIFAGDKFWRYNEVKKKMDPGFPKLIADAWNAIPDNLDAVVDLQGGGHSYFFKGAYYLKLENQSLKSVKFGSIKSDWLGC

pIC50, pKi: −log10 of the molar value.

Broadly, the pKi is the Ki on a negative log10 scale, so that one unit is a factor of ten. What is called pIC50 is the negative decadic logarithm of the IC50, by convention in mol/L. Read a high pIC50 as a small IC50.

Macrophage metalloelastase, sequence (P39900 whole entry): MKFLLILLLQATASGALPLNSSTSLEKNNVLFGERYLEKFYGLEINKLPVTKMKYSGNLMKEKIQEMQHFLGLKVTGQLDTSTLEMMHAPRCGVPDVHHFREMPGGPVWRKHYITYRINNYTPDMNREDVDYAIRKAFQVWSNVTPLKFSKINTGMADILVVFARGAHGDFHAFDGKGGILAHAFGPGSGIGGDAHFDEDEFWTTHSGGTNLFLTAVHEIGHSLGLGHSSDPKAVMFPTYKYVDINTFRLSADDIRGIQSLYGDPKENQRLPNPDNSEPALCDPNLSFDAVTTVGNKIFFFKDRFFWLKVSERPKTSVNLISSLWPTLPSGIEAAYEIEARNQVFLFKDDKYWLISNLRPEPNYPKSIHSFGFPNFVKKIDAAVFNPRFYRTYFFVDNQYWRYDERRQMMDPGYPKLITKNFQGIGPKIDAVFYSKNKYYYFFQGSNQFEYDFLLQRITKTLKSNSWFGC
Stromelysin-1, sequence (P08254 whole entry): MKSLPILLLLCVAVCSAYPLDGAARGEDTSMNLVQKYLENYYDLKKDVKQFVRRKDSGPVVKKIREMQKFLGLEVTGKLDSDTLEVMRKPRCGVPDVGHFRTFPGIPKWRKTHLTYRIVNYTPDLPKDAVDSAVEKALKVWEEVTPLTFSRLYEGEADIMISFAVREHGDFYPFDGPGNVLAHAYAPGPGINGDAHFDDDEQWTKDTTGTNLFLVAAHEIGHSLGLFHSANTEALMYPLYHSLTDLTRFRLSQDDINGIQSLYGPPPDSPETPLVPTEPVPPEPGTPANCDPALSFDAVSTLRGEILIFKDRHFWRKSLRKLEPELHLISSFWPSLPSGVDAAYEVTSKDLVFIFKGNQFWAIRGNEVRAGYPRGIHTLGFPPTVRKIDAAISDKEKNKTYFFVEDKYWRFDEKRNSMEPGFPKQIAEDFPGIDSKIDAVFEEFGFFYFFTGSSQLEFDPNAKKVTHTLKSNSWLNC

In the case of `Cc1cc(COc2ccc(C(=O)NC(C)(C)Cc3n[nH]c(=S)[nH]3)cc2)c2ccccc2n1`, the pKi at Stromelysin-1 is less than 5.35; on Collagenase 3, less than 5.30; in assay [1], less than 5.22; on Matrilysin, less than 5.20; in assay [3] it was less than 5.48. For the same compound, in assay [2], the pIC50 is 7.26.

As to `Cc1cc(COc2ccc(C(=O)NCc3n[nH]c(=S)[nH]3)cc2)c2ccccc2n1`, the pKi was less than 5.35 at Stromelysin-1; less than 5.30 at Collagenase 3; less than 5.22 in assay [1]; less than 5.20 on Matrilysin; less than 5.48 in assay [3]. The compound also had a pIC50 in assay [2] of less than 6.00.

For the compound `Cc1cc(COc2ccc(C(=O)N[C@@H]3CN(C(=O)OC(C)(C)C)C[C@@H]3c3n[nH]c(=S)[nH]3)cc2)c2ccccc2n1` (relative stereo), the pKi is less than 5.35 on Stromelysin-1; less than 5.30 at Collagenase 3; 5.45 in assay [1]; less than 5.20 at Matrilysin; less than 5.48 in assay [3]. In addition, the pIC50 in assay [2] was 7.85.

For `CCCN1C[C@H](c2n[nH]c(=S)[nH]2)[C@H](NC(=O)c2ccc(OCc3cc(C)nc4ccccc34)cc2)C1` (relative stereo), the negative logarithm of the Ki (pKi) at Stromelysin-1 was less than 5.35; at Collagenase 3, 5.61; in assay [1] it was less than 5.22; on Matrilysin, less than 5.20; in assay [3], less than 5.48. The pIC50 in assay [2] is 8.00.

Turning to `Cc1cc(COc2ccc(C(=O)NC3(Cc4n[nH]c(=S)[nH]4)CCN(C(=O)OC(C)(C)C)CC3)cc2)c2ccccc2n1`, the pKi on Stromelysin-1 was less than 5.35; at Collagenase 3, less than 5.30; in assay [1], less than 5.22; at Matrilysin, less than 5.20; in assay [3], less than 5.48. Also, the pIC50 in assay [2] is 7.44.

Take `Cc1cc(COc2ccc(C(=O)N[C@@H]3CCNC[C@@H]3c3n[nH]c(=S)[nH]3)cc2)c2ccccc2n1` (relative stereo): the pKi was less than 5.35 at Stromelysin-1; less than 5.30 at Collagenase 3; less than 5.22 in assay [1]; less than 5.20 at Matrilysin; less than 5.48 in assay [3]. For the same compound, the pIC50 in assay [2] is 7.37.

With `Cc1cc(COc2ccc(C(=O)NCCc3n[nH]c(=S)[nH]3)cc2)c2ccccc2n1`, the negative logarithm of the Ki (pKi) at Stromelysin-1 is less than 5.35; on Collagenase 3, less than 5.30; in assay [1], less than 5.22; on Matrilysin, less than 5.20; in assay [3], less than 5.48. The same compound had a pIC50 in assay [2] of 6.68.

Regarding `C#CCN1CC[C@H](c2n[nH]c(=S)[nH]2)[C@H](NC(=O)c2ccc(OCc3cc(C)nc4ccccc34)cc2)C1` (relative stereo), the pKi at Stromelysin-1 was less than 5.35; on Collagenase 3, less than 5.30; in assay [1], less than 5.22; on Matrilysin, less than 5.20; in assay [3], less than 5.48. This compound also showed a pIC50 in assay [2] of 7.14.

In the case of `Cc1cc(COc2ccc([C@]3(N)CCN([C@H](CC(C)C)c4n[nH]c(=S)[nH]4)C3=O)cc2)c2ccccc2n1`, the negative-log Ki (pKi) at Stromelysin-1 is less than 5.35; on Collagenase 3, less than 5.30; in assay [1], less than 5.22; at Matrilysin it was less than 5.20; in assay [3], less than 5.48. Also, the pIC50 in assay [2] is less than 6.00.

Regarding `Cc1cc(COc2ccc(C(=O)N[C@@H]3CCOC[C@@H]3c3n[nH]c(=S)[nH]3)cc2)c2ccccc2n1` (relative stereo), the pKi on Stromelysin-1 was less than 5.35; on Collagenase 3, less than 5.30; in assay [1], less than 5.22; on Matrilysin, less than 5.20; in assay [3] it was less than 5.48. This compound also had a pIC50 in assay [2] of 8.09.

In the case of `CC(=O)N1C[C@H](c2n[nH]c(=S)[nH]2)[C@H](NC(=O)c2ccc(OCc3cc(C)nc4ccccc34)cc2)C1` (relative stereo), the pKi was less than 5.35 at Stromelysin-1; less than 5.30 on Collagenase 3; less than 5.22 in assay [1]; less than 5.20 at Matrilysin; less than 5.48 in assay [3]. Moreover, the pIC50 in assay [2] is 8.82.

`Cc1cc(COc2ccc(C(=O)N[C@@H]3CN(S(C)(=O)=O)CC[C@@H]3c3n[nH]c(=S)[nH]3)cc2)c2ccccc2n1` (relative stereo): the pKi is less than 5.35 at Stromelysin-1; less than 5.30 on Collagenase 3; less than 5.22 in assay [1]; less than 5.20 at Matrilysin; less than 5.48 in assay [3]. For the same compound, in assay [2], the pIC50 was 7.55.

Take `Cc1cc(COc2ccc(C(=O)N[C@@H]3CN(C(=O)OC(C)(C)C)CC[C@@H]3c3n[nH]c(=S)[nH]3)cc2)c2ccccc2n1` (relative stereo): the pKi at Stromelysin-1 is less than 5.35; on Collagenase 3 it was less than 5.30; in assay [1], less than 5.22; on Matrilysin, less than 5.20; in assay [3], less than 5.48. This compound gave a negative-log IC50 (pIC50) in assay [2] of 7.12.

As for `CCCN1CC[C@H](c2n[nH]c(=S)[nH]2)[C@H](NC(=O)c2ccc(OCc3cc(C)nc4ccccc34)cc2)C1` (relative stereo), the pKi at Stromelysin-1 is less than 5.35; on Collagenase 3 it was less than 5.30; in assay [1], less than 5.22; at Matrilysin, less than 5.20; in assay [3], less than 5.48. Moreover, the pIC50 in assay [2] is 7.82.

`Cc1cc(COc2ccc(C(=O)NC3(Cc4n[nH]c(=S)[nH]4)CCOCC3)cc2)c2ccccc2n1`: the pKi at Stromelysin-1 was 5.68; on Collagenase 3, 6.12; in assay [1] it was 6.65; at Matrilysin, 6.20; in assay [3], 5.80. In assay [2], this compound gave a pIC50 of 7.62.

For the compound `CC(=O)N1CC[C@H](c2n[nH]c(=S)[nH]2)[C@H](NC(=O)c2ccc(OCc3cc(C)nc4ccccc34)cc2)C1` (relative stereo), the pKi on Stromelysin-1 was less than 5.35; at Collagenase 3 it was 5.50; in assay [1], less than 5.22; on Matrilysin, less than 5.20; in assay [3], less than 5.48. Also, the negative-log IC50 (pIC50) in assay [2] was 8.60.

`O=C(NCCCc1n[nH]c(=S)[nH]1)c1ccc(OCc2ccnc3ccccc23)cc1`: the pKi was less than 5.35 on Stromelysin-1; less than 5.30 at Collagenase 3; less than 5.22 in assay [1]; less than 5.20 at Matrilysin; less than 5.48 in assay [3]. This compound showed a pIC50 in assay [2] of 6.53.

Turning to `Cc1cc(COc2ccc(C(=O)N[C@@H]3CN(C(C)C)CC[C@@H]3c3n[nH]c(=S)[nH]3)cc2)c2ccccc2n1` (relative stereo), the pKi was less than 5.35 at Stromelysin-1; less than 5.30 on Collagenase 3; less than 5.22 in assay [1]; less than 5.20 at Matrilysin; less than 5.48 in assay [3]. Besides, the pIC50 in assay [2] is 7.51.

Turning to `Cc1cc(COc2ccc(C(=O)N[C@@H]3CN(C)CC[C@@H]3c3n[nH]c(=S)[nH]3)cc2)c2ccccc2n1` (relative stereo), the pKi was less than 5.35 at Stromelysin-1; less than 5.30 on Collagenase 3; 6.02 in assay [1]; 5.27 at Matrilysin; less than 5.48 in assay [3]. For the same compound, the pIC50 in assay [2] was 7.80.

Take `Cc1cc(COc2ccc(C(=O)N[C@@H]3CCC[C@@H]3c3n[nH]c(=S)[nH]3)cc2)c2ccccc2n1` (relative stereo): the pKi was less than 5.35 on Stromelysin-1; less than 5.30 on Collagenase 3; less than 5.22 in assay [1]; less than 5.20 on Matrilysin; less than 5.48 in assay [3]. Moreover, the pIC50 in assay [2] was 7.39.

As to `Cc1cc(COc2ccc(C(=O)N[C@@H]3CNC[C@@H]3c3n[nH]c(=S)[nH]3)cc2)c2ccccc2n1` (relative stereo), the pKi at Stromelysin-1 was less than 5.35; on Collagenase 3, less than 5.30; in assay [1] it was less than 5.22; on Matrilysin, less than 5.20; in assay [3], less than 5.48. This compound also showed a pIC50 in assay [2] of 7.04.

Regarding `Cc1cc(COc2ccc(C(=O)N[C@@H]3CNCC[C@@H]3c3n[nH]c(=S)[nH]3)cc2)c2ccccc2n1` (relative stereo), the pKi is less than 5.35 on Stromelysin-1; less than 5.30 at Collagenase 3; less than 5.22 in assay [1]; less than 5.20 on Matrilysin; less than 5.48 in assay [3]. The compound further showed a pIC50 in assay [2] of 8.03.

The values above are taken from ChEMBL document CHEMBL1140660, “Synthesis and structure-activity relationship of a novel, non-hydroxamate series of TNF-alpha converting enzyme inhibitors” (Bioorg Med Chem Lett, 2007).
